Molecules are shown by their SMILES. Some results are limits rather than exact numbers.

As usually defined, the viability is the share of living cells, or the viability signal relative to a control. As a reminder, the inhibition is how much of the control response was suppressed. Broadly, the CC50 is the concentration giving 50% cytotoxicity. A word on the EC50: it is the concentration needed to bring the measured effect to its halfway point. Usually melting point stands for the temperature of the solid-liquid transition.

One series is described as follows: in vitro. Conditions: human. As for the experimental part:
(§1) Anti-HIV-1 activity of synthesized compounds was evaluated in single cycle replication assay which was evaluated in our laboratory and reported previously ([32]-[35]). In this assay, the single-cycle replicable HIV NL4-3 virions (200 ng p24) were inoculated concurrently with compounds in different concentrations to the Hela cells. The inhibition rate (%) of p24 expression was measured by capture ELISA (Biomerieux, France) 72 hours after inoculation. Percentage inhibition of p24 expression in treated culture was calculated as inhibition rate of p24 (%). The XTT (sodium3-[1(phenylaminocarbonyl)-3,4-tetrazolium]-bis(4-methoxy-6-nitro)benzene sulfonic acid) proliferation assay was conducted to evaluate the cellular toxicity according to kit instructions ([36], [37]). Cytotoxicity test was performed exactly after the p24 assay.
(§2) Compounds 11a-h were assayed for anti-HIV-1 activity in single cycle replication method which reflects only one round of infection. Anti-HIV activity of compounds was measured as inhibition rate (%) of p24 expression in Hela cells cultures. Azidothymidine (AZT) was the positive control in the test. The cytotoxic properties were measured in the same cells by XTT proliferation assay and reported as percentage of cell viability.

The test system of series [1] is HIV-1. Kind of series: microbe, parasite or virus in culture. It counts as cell-based. Conditions: Human immunodeficiency virus 1, NL43, M-HeLa, 72 h, read-out: (%) Inhibition rate of p24 expression. As for the experimental part:
as §1, §2

Details of series [2]: method as in earlier work. Conditions: read-out: CC50 (cytotoxicity); cited from earlier work.
Series [3] concerns HIV-1. More on the design: method as in earlier work. Conditions: read-out: EC50 (anti-HIV-1 activity); cited from earlier work.

On to `Cc1cn([C@H]2C[C@H](N=[N+]=[N-])[C@@H](CO)O2)c(=O)[nH]c1=O` [AZT, Azidothymidine, reference compound], for which the viability at 72 h, 100 µM in “in vitro” is 92%. The inhibition at 100 µM with HIV-1 [1] was 58%.
For the molecule `O=c1c(-c2nnc(SCc3ccccc3F)o2)c[nH]c2c(-c3ccccc3)cccc12` [Compound 3], the CC50 in series [2] was greater than 100 µM. Also, the EC50 with HIV-1 [3] is 50 µM.
`CSc1nnc(-c2ccc(N=Nc3c(O)c4ccccc4oc3=O)cc2)o1` [Compound 11a, 4-Hydroxy-3-((4-(5-(methylthio)-1,3,4-oxadiazol-2-yl)phenyl)diazenyl)-2H-chromen-2-one] gave a melting point of 211.6 to 212.1 °C. The viability at 72 h, 100 µM in “in vitro” turned out to be 51%. Moreover, the inhibition at 100 µM in the series on HIV-1 [1] was 79%.
In the case of `CCSc1nnc(-c2ccc(N=Nc3c(O)c4ccccc4oc3=O)cc2)o1` [Compound 11b, 3-((4-(5-(Ethylthio)-1,3,4-oxadiazol-2-yl)phenyl)diazenyl)-4-hydroxy-2H-chromen-2-one], the melting point is 290 to 291 °C (dec.). In “in vitro”, this molecule returned a viability at 72 h, 100 µM of 100%. The inhibition at 100 µM in the series with HIV-1 [1] turned out to be 5%.
`CCCSc1nnc(-c2ccc(N=Nc3c(O)c4ccccc4oc3=O)cc2)o1` [Compound 11c, 4-Hydroxy-3-((4-(5-(propylthio)-1,3,4-oxadiazol-2-yl)phenyl)diazenyl)-2H-chromen-2-one] returned a melting point of 205.5 to 206.8 °C. In the series “in vitro”, this molecule came in with a viability at 72 h, 100 µM of 93%. In the series on HIV-1 [1], the inhibition at 100 µM worked out at 32%.
The matching figures for `O=c1oc2ccccc2c(O)c1N=Nc1ccc(-c2nnc(SCc3ccccc3)o2)cc1` [Compound 11d, 3-((4-(5-(Benzylthio)-1,3,4-oxadiazol-2-yl)phenyl)diazenyl)-4-hydroxy-2H-chromen-2-one]: 243.1 to 243.8 °C, 94% and 6%.
For `O=c1oc2ccccc2c(O)c1N=Nc1ccc(-c2nnc(SCc3ccccc3Cl)o2)cc1` [Compound 11e, 3-((4-(5-(2-Chlorobenzylthio)-1,3,4-oxadiazol-2-yl)phenyl)diazenyl)-4-hydroxy-2H-chromen-2-one], the melting point was 236.8 to 237.5 °C. In the series “in vitro”, this molecule displayed a viability at 72 h, 100 µM of 75%. Moreover, the inhibition at 100 µM with HIV-1 [1] worked out at 33%.
The corresponding values for `O=c1oc2ccccc2c(O)c1N=Nc1ccc(-c2nnc(SCc3ccc(Cl)cc3)o2)cc1` [Compound 11f, 3-((4-(5-(4-Chlorobenzylthio)-1,3,4-oxadiazol-2-yl)phenyl)diazenyl)-4-hydroxy-2H-chromen-2-one] are 260.8 to 263.8 °C, 100% and 52%.
The corresponding values for `O=c1oc2ccccc2c(O)c1N=Nc1ccc(-c2nnc(SCc3ccccc3F)o2)cc1` [Compound 11g, 3-((4-(5-(2-Fluorobenzylthio)-1,3,4-oxadiazol-2-yl)phenyl)diazenyl)-4-hydroxy-2H-chromen-2-one] are 240.1 to 242.2 °C, 74% and 22%.
The matching figures for `O=c1oc2ccccc2c(O)c1N=Nc1ccc(-c2nnc(SCc3ccc(F)cc3)o2)cc1` [Compound 11h, 3-((4-(5-(4-Fluorobenzylthio)-1,3,4-oxadiazol-2-yl)phenyl)diazenyl)-4-hydroxy-2H-chromen-2-one]: 246.6 to 251.6 °C, 100% and 25%.

The record behind these values is article PMC6447871, “Design, Synthesis, Molecular Modeling, In Silico ADME Studies and Anti-HIV-1 Assay of New Diazocoumarin Derivatives” (Iranian Journal of Pharmaceutical Research : IJPR, 2018).
